In article PMC11124394, “Novel Combretastatin A-4 Analogs—Design, Synthesis, and Antiproliferative and Anti-Tubulin Activity” (Molecules, 2024):
Where two headings read alike, the source gives them in different places.

Columns and labels:
Format in all cases: cell-based
[1] = test system: A549 (lung cancer) cells; assay: SRB cytotoxicity assay, A549; settings: Homo sapiens, read-out: Cytotoxicity IC50, A549
Protocol: (§1) The antiproliferative activity was tested on human primary (SW480) and metastatic (SW620) colon cancer, human prostate cancer (PC3), human liver cancer (HepG2), human breast cancer (MDA), human lung cancer (A549), and human immortalized keratinocyte (HaCaT) cell lines obtained from the American Type Culture Collection (ATCC, Rockville, MD, USA). The cells were cultured in EMEM (SW480 and SW620), RPMI 1640 (PC3) or DMEM High Glucose (HepG2, MDA, A549, and HaCaT) with stable glutamine supplemented with 10% heat-inactivated fetal bovine serum (FBS), penicillin (100 U/mL), and streptomycin (100 µg/mL) in 37 °C and 5% CO2/95% air humified incubator. The cells were grown until 80–90% confluence and then were harvested with 0.25% trypsin and used for the experiments. All the reagents for the cell culture were provided by VWR Chemicals.
(§2) Cytotoxicity was tested with the sulforhodamine B (SRB) assay according to the National Cancer Institute protocol with slight modifications. Briefly, cells were seeded on a 96-well plate (5 × 10^3 cells per well). After 24 h incubation, zero-time control cells were fixed with TCA (final concentration 5%) for 1 h at 4 °C. […] The untreated cells were used as the control. After incubation, the cells were fixed with TCA (final concentration 5%) for 1 h at 4 °C, gently washed 4 times with tap water, and left for drying. The dried fixed cells were incubated with SRB solution (0.05% SRB in 1% acetic acid) for 30 min rt, washed four times with 1% acetic acid, and left for drying. The dried cells were dissolved in 10 mM Tris-base solution (pH 10.5) and the absorbance was read at 510 nm.
(§3) The cell viability was presented as a percent of SRB reduction in the treated cells versus that in control cells. The mean absorbance for control cells was assumed as 100%. No-cell control (blank well) absorbance was assumed as 0%, unless the compound was cytostatic, then 0% referred to zero-time control. The IC50 values were calculated using the GraphPad Prism 10.1.2 (324) (USA) software. The most cytotoxic compounds (8 and 20) were selected for further in vitro experiments.

[2] = test system: MDA (breast cancer) cells; assay: SRB cytotoxicity assay, MDA; settings: Homo sapiens, read-out: Cytotoxicity IC50, MDA
Protocol: as §1, §2, §3

[3] = test system: SW480 (primary colon cancer) cells; assay: SRB cytotoxicity assay, SW480; settings: Homo sapiens, read-out: Cytotoxicity IC50, SW480
Protocol: as §1, §2, §3

[4] = test system: six human cancer cell lines (SW480, SW620, PC3, HepG2, MDA, A549) and HaCaT; assay: SRB cytotoxicity assay, whole panel; settings: cell line panel
Protocol: The antiproliferative properties of the studied combretastatin derivatives were tested on six human cancer cell lines, including primary colon (SW480), metastatic colon (SW620), prostate (PC3), liver (HepG2), breast (MDA), and lung (A549) cancer cells, and non-tumor human immortalized keratinocyte cell line (HaCaT) using the sulforhodamine B (SRB) assay. […] No selectivity was observed against the tumor cell lines when compared to that against the non-tumor cell line. Nevertheless, these values were much higher than the IC50 of the reference compounds (<0.2 μM).
as §1, §2, §3

[5] = test system: HepG2 (liver cancer) cells; assay: SRB cytotoxicity assay, HepG2; settings: Homo sapiens, read-out: Cytotoxicity IC50, HepG2
Protocol: as §1, §2, §3

[6] = test system: SW620 (metastatic colon cancer) cells; assay: SRB cytotoxicity assay, SW620; settings: Homo sapiens, read-out: Cytotoxicity IC50, SW620
Protocol: as §1, §2, §3

[7] = SRB cytotoxicity assay, HaCaT; settings: human, 48 h culture, mean ± SD, at least three independent experiments, compounds marked * : low solubility, real values might be lower
Protocol: as §1, §2, §3

[8] = test system: PC3 (prostate cancer) cells; assay: SRB cytotoxicity assay, PC3; settings: Homo sapiens, read-out: Cytotoxicity IC50, PC3
Protocol: as §1, §2, §3

[9] = A549, SRB assay, 48 h culture, mean ± SD, at least three independent experiments, compounds marked * : low solubility, real values might be lower
[10] = SRB assay, 48 h culture, mean ± SD, at least three independent experiments, compounds marked * : low solubility, real values might be lower
[11] = SW480, SRB assay, 48 h culture, mean ± SD, at least three independent experiments, compounds marked * : low solubility, real values might be lower
[12] = HepG2, SRB assay, 48 h culture, mean ± SD, at least three independent experiments, compounds marked * : low solubility, real values might be lower
[13] = SW-620, SRB assay, 48 h culture, mean ± SD, at least three independent experiments, compounds marked * : low solubility, real values might be lower
[14] = HaCaT immortalized keratinocyte cells (non-tumor cell line)

Structure (SMILES) | IC50 [1, 9] [µM] | IC50 [2, 10] [µM] | IC50 [3, 11] [µM] | Cytotoxicity (in words) [4] | IC50 [5, 12] [µM] | IC50 [6, 13] [µM] | IC50 at 48 h [7, 14] [µM] | IC50 [8, 10] [µM] | IC50 ([1]; A549, 48 h) [µM] | IC50 ([2]; 48 h) [µM] | IC50 ([3]; SW480, 48 h) [µM] | IC50 ([5]; HepG2, 48 h) [µM] | IC50 ([6]; SW-620, 48 h) [µM] | IC50 at 48 h ([7]; non-tumor cell line) [µM] | IC50 ([8]; 48 h) [µM]
COc1ccc(/C(=C\c2cc(OC)c(OC)c(OC)c2)C(=O)O)cc1Br [Compound 3] | > 100 | > 100 | > 100 | does not have any anticancer potential | > 100 | > 100 | > 100 | > 100 | – | – | – | – | – | – | –
COC(=O)/C(=C/c1cc(OC)c(OC)c(OC)c1)c1ccc(OC)c(Br)c1 [Compound 4] | 53 ± 10.8 | 55.2 ± 17.3 | 57.6 ± 9.4 | – | 63.7 ± 12.6 | 61.8 ± 11.4 | 68.3 ± 19.6 | 65.9 ± 16.1 | – | – | – | – | – | – | –
CCOC(=O)/C(=C/c1cc(OC)c(OC)c(OC)c1)c1ccc(OC)c(Br)c1 [Compound 5] | 46.6 ± 12.1 | 45.2 ± 5.5 | 73.6 ± 8.4 | – | 42.1 ± 10.2 | 57.5 ± 3.9 | 45 ± 7.2 | 43.2 ± 10.2 | – | – | – | – | – | – | –
C#CCOC(=O)/C(=C/c1cc(OC)c(OC)c(OC)c1)c1ccc(OC)c(Br)c1 [Compound 6] | > 100 | > 100 | > 100 | – | > 100 | > 100 | > 100 | > 100 | – | – | – | – | – | – | –
COc1ccc(/C(=C\c2cc(OC)c(OC)c(OC)c2)C(=O)OCc2ccccc2)cc1Br [Compound 7] | > 100 | > 100 | > 100 | – | > 100 | > 100 | > 100 | > 100 | – | – | – | – | – | – | –
COc1ccc(/C(=C\c2cc(OC)c(OC)c(OC)c2)C(=O)OCCCCCCBr)cc1Br [Compound 9] | > 100 | > 100 | > 100 | did not show any cytotoxicity | > 100 | > 100 | > 100 | > 100 | – | – | – | – | – | – | –
CNC(=O)/C(=C/c1cc(OC)c(OC)c(OC)c1)c1ccc(OC)c(Br)c1 [Compound 10] | 49.3 ± 16.3 | 55.5 ± 20.3 | 52.2 ± 17.9 | – | 50.5 ± 10.5 | 46 ± 11.4 | 55.3 ± 17 | 44.9 ± 12.1 | – | – | – | – | – | – | –
CCCCNC(=O)/C(=C/c1cc(OC)c(OC)c(OC)c1)c1ccc(OC)c(Br)c1 [Compound 11] | 65.1 ± 17.3 | 61.4 ± 21.8 | 50.2 ± 11.2 | – | 50.5 ± 17.5 | 50.8 ± 14.5 | 58.6 ± 22.2 | 67.2 ± 18.6 | – | – | – | – | – | – | –
C#CCNC(=O)/C(=C/c1cc(OC)c(OC)c(OC)c1)c1ccc(OC)c(Br)c1 [Compound 12] | > 100 | > 100 | > 100 | – | > 100 | > 100 | > 100 | > 100 | – | – | – | – | – | – | –
COc1ccc(/C(=C\c2cc(OC)c(OC)c(OC)c2)C(=O)NCc2ccccc2)cc1Br [Compound 13] | 82.1 ± 13.9 | 59.8 ± 18.8 | 59.8 ± 23 | – | 56.2 ± 22.2 | 62.4 ± 3.1 | 68.5 ± 4.8 | 55.8 ± 23.7 | – | – | – | – | – | – | –
COc1ccc(/C(=C\c2cc(OC)c(OC)c(OC)c2)C(=O)Nc2ccccc2)cc1Br [Compound 14] | > 100 | > 100 | > 100 | – | > 100 | > 100 | > 100 | > 100 | – | – | – | – | – | – | –
COc1ccc(/C(=C\c2cc(OC)c(OC)c(OC)c2)C(=O)NCc2ccccc2[N+](=O)[O-])cc1Br [Compound 15] | > 100 | > 100 | > 100 | – | > 100 | > 100 | > 100 | > 100 | – | – | – | – | – | – | –
COc1ccc(/C(=C\c2cc(OC)c(OC)c(OC)c2)C(=O)NCc2ccccc2Cl)cc1Br [Compound 16] | 92.8 ± 7.7 | 99.8 ± 3.9 | > 100 | – | > 100 | > 100 | > 100 | > 100 | – | – | – | – | – | – | –
COc1ccc(/C(=C\c2cc(OC)c(OC)c(OC)c2)C(=O)NCc2cccc(Cl)c2)cc1Br [Compound 17] | > 100 | > 100 | > 100 | – | > 100 | > 100 | > 100 | > 100 | – | – | – | – | – | – | –
COc1ccc(/C(=C\c2cc(OC)c(OC)c(OC)c2)C(=O)NCc2ccc(Cl)cc2)cc1Br [Compound 18] | 62.2 ± 8.6 | 66.7 ± 6.4 | > 100 | – | 89.6 ± 24.4 | > 100 | > 100 | > 100 | – | – | – | – | – | – | –
CCCN(CCC)C(=O)/C(=C/c1cc(OC)c(OC)c(OC)c1)c1ccc(OC)c(Br)c1 [Compound 19] | > 100 | > 100 | > 100 | did not show any cytotoxicity | > 100 | > 100 | > 100 | > 100 | – | – | – | – | – | – | –
COc1ccc(/C(=C\c2cc(OC)c(OC)c(OC)c2)C(=O)N2CCOCC2)cc1Br [Compound 21] | > 100 | > 100 | > 100 | – | > 100 | > 100 | > 100 | > 100 | – | – | – | – | – | – | –
COc1ccc(/C(=C\c2cc(OC)c(OC)c(OC)c2)C(=O)N(Cc2ccccc2)Cc2ccccc2)cc1Br [Compound 22] | > 100 | > 100 | > 100 | – | > 100 | > 100 | > 100 | > 100 | – | – | – | – | – | – | –
COc1cc2c(c(OC)c1OC)-c1ccc(OC)c(=O)cc1[C@@H](NC(C)=O)CC2 [colchicine, reference compound] | – | – | – | – | – | – | – | – | 0.094 ± 0.009 | 0.11 ± 0.015 | 0.166 ± 0.065 | 0.107 ± 0.025 | 0.13 ± 0.089 | 0.104 ± 0.012 | 0.118 ± 0.047
COc1cc([C@@H]2c3cc4c(cc3[C@H](O)[C@H]3COC(=O)[C@H]23)OCO4)cc(OC)c1OC [podophyllotoxin, reference compound] | – | – | – | – | – | – | – | – | 0.0247 ± 0.0039 | 0.0293 ± 0.0028 | 0.0444 ± 0.0022 | 0.0258 ± 0.0056 | 0.0292 ± 0.0078 | 0.0316 ± 0.004 | 0.0129 ± 0.0015
